Where “and” joins values, the source holds several entries; their conditions need not be identical. Equal values may be shown once. Toxic doses and inconclusive results are not listed.
Tested on: P388 leukemia ip, CD2F1 mice, survival T/C
Assay: NCI In Vivo Anticancer Drug Screen. Data for tumor model P388 Leukemia (intraperitoneal) in CD2F1 (CDF1) mice
Settings: endpoint: median survival time, higher = longer survival
Procedure, shortened: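 Mice carrying the transplanted tumor received test compound or vehicle. Survival was recorded in each group, and the value is the treated-group measurement divided by that of the vehicle-treated control group.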

[1] = dose: 60.0 mg/kg/injection, schedule: Q01DX005 (ip), vehicle: saline with Tween-80
[2] = dose: 120.0 mg/kg/injection, schedule: Q01DX005 (ip), vehicle: saline with Tween-80
[3] = dose: 25.0 mg/kg/injection, schedule: Q01DX009 (ip), vehicle: saline with Tween-80
[4] = dose: 50.0 mg/kg/injection, schedule: Q01DX009 (ip), vehicle: saline with Tween-80
[5] = dose: 100.0 mg/kg/injection, schedule: Q01DX009 (ip), vehicle: saline with Tween-80
[6] = dose: 50.0 mg/kg/injection, schedule: Q01DX001 (ip), vehicle: Klucel (hydroxypropylcellulose) (HPC)

With `Cc1cccc(-n2c(=O)c3[nH]c4ccccc4sc=3c2=O)c1` the T/C [1] was 104 % of control, the T/C [2] was 107 % of control and the T/C (dose: 240.0 mg/kg/injection, schedule: Q01DX005 (ip), vehicle: saline with Tween-80) was 92 % of control.
For `CC1=C2C3OC(=O)C(C)C3CCC2(C)C=C(Br)C1=O` (configuration not stated), the T/C (dose: 60.0 mg/kg/injection, schedule: Q01DX005 (ip), vehicle: Klucel (hydroxypropylcellulose) (HPC)) was 106 % of control, the T/C (dose: 100.0 mg/kg/injection, schedule: Q04DX002 (ip), vehicle: saline with Tween-80) was 101 % of control and the T/C (dose: 120.0 mg/kg/injection, schedule: Q01DX005 (ip), vehicle: Klucel (hydroxypropylcellulose) (HPC)) was 98 % of control. For the same compound, the T/C (dose: 200.0 mg/kg/injection, schedule: Q04DX002 (ip), vehicle: saline with Tween-80) was 97 % of control, the T/C (dose: 240.0 mg/kg/injection, schedule: Q01DX005 (ip), vehicle: Klucel (hydroxypropylcellulose) (HPC)) was 104 % of control and the T/C (dose: 400.0 mg/kg/injection, schedule: Q04DX002 (ip), vehicle: saline with Tween-80) was 97 % of control.
With `CNCCc1ccc2cc(OC)c(OC)cc2c1` the T/C [3] was 90 % of control, the T/C [4] was 100 % of control and the T/C [5] was 100 % of control.
In the case of `COc1ccc(NC(=O)c2ccc(C(=O)Nc3ccc(OC)cc3)cc2)cc1`, the T/C (dose: 50.0 mg/kg/injection, schedule: Q01DX001 (ip), vehicle: other) is reported as 90 % of control, the T/C (dose: 100.0 mg/kg/injection, schedule: Q01DX001 (ip), vehicle: other) is reported as 95 % of control and the T/C (dose: 200.0 mg/kg/injection, schedule: Q01DX001 (ip), vehicle: other) is reported as 90 % of control. For the same compound, the T/C (dose: 400.0 mg/kg/injection, schedule: Q01DX001 (ip), vehicle: other) was 95 % of control.
With `CC(C)=CCC1=CC(=O)C=CC1=O` the T/C (dose: 6.25 mg/kg/injection, schedule: Q01DX009 (ip), vehicle: saline with Tween-80) was 98 % of control, the T/C (dose: 12.5 mg/kg/injection, schedule: Q01DX009 (ip), vehicle: saline with Tween-80) was 99 % of control and the T/C [3] was 107 % of control. The T/C [4] was 114 % of control.
In the case of `C[C](C)(C)[Ge]([O][Ge]([c]1ccccc1)[c]1ccccc1)([O][Ge]([c]1ccccc1)[c]1ccccc1)[C](C)(C)C`, the T/C (dose: 15.0 mg/kg/injection, schedule: Q01DX005 (ip), vehicle: saline with Tween-80) is reported as 103 % of control, the T/C (dose: 30.0 mg/kg/injection, schedule: Q01DX005 (ip), vehicle: saline with Tween-80) is reported as 103 % of control and the T/C [1] is reported as 110 % of control and 117 % of control. The T/C [2] was 117 % of control.
With `CNNS(=O)(=O)CC(O)C(Cl)(Cl)Cl` (configuration not stated) the T/C (dose: 50.0 mg/kg/injection, schedule: Q01DX009 (ip), vehicle: saline) was 106 % of control and the T/C (dose: 100.0 mg/kg/injection, schedule: Q01DX009 (ip), vehicle: saline) was 101 % of control.
`Cc1ccc(N=C(Cl)Nc2ccc(C)cc2)cc1` was tested, and the T/C [4] was 105 % of control, the T/C [5] was 108 % of control and the T/C (dose: 200.0 mg/kg/injection, schedule: Q01DX009 (ip), vehicle: saline with Tween-80) was 98 % of control.
In the case of `N#Cc1cn(C2OC(CO)C(O)C2O)c2ncnc(Cl)c12` (configuration not stated), the T/C [1] is reported as 151 % of control and 174 % of control and the T/C [2] is reported as 111 % of control.
`O=C(NCCNC(=S)Nc1ccccc1)C(=O)NCCNC(=S)Nc1ccccc1` was tested, and the T/C [6] was 91 % of control, the T/C (dose: 100.0 mg/kg/injection, schedule: Q01DX001 (ip), vehicle: Klucel (hydroxypropylcellulose) (HPC)) was 91 % of control and the T/C (dose: 200.0 mg/kg/injection, schedule: Q01DX001 (ip), vehicle: Klucel (hydroxypropylcellulose) (HPC)) was 91 % of control.
In the case of `N#CC1CCCCC1C1(C#N)CCCCC1Cc1nccc2ccccc12` (configuration not stated), the T/C (dose: 100.0 mg/kg/injection, schedule: Q04DX003 (ip), vehicle: saline with Tween-80) is reported as 95 % of control, the T/C (dose: 200.0 mg/kg/injection, schedule: Q04DX003 (ip), vehicle: saline with Tween-80) is reported as 100 % of control and the T/C (dose: 400.0 mg/kg/injection, schedule: Q04DX003 (ip), vehicle: saline with Tween-80) is reported as 86 % of control.
`CCC[CH2][Sn]([CH2]CCC)([S]CC(=O)OCc1ccccc1)[S]CC(=O)OCc1ccccc1` was tested, and the T/C (dose: 12.5 mg/kg/injection, schedule: Q01DX001 (ip), vehicle: Klucel (hydroxypropylcellulose) (HPC)) was 108 % of control, the T/C (dose: 25.0 mg/kg/injection, schedule: Q01DX001 (ip), vehicle: Klucel (hydroxypropylcellulose) (HPC)) was 116 % of control and the T/C [6] was 108 % of control.
For `CCOC(=O)C1=C(C(=O)c2ccccc2)C(c2ccccc2[N+](=O)[O-])C(C(=O)c2ccccc2)=C(C(=O)OCC)N1`, the T/C [1] was 101 % of control and the T/C [2] was 98 % of control.

Source: PubChem BioAssay AID330 (DTP/NCI, 2004)
